In patent US20260184697A1, “EZH1/2 INHIBITOR, PREPARATION THEREOF, AND USE THEREOF IN ANTI-TUMOR THERAPY” (JIANGSU TASLY DIYI PHARMACEUTICAL CO., LTD., priority 2022, published 2026) one finds IC50 data, which are given here for 19 molecules.

For test [1], the target named is T1, EZH2/SUZ/EED (Homo sapiens, UniProt O75530+Q15022+Q15910).
T1 construct: purchased BPS 51003
In words: Inhibitory effect on EZH2 by the MTase-Glo method (Test Example 1). To be noted: EZH2/SUZ/EED 6.25 nM, H3 peptide 10 μM, SAM 3 μM, 30° C. 3 h, read-out: Test Example 1 WT EZH2 IC50. The format is biochemical. In a few lines: (§1)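 EZH2/SUZ/EED (6.25 nM) or EZH1/SUZ/EED (25 nM) pre-incubated 15 min with compound in pH 7.6 Bicine buffer, 0.5% DMSO. Biotinylated H3(21-44) peptide 10 μM plus SAM 3 μM reacted 3 h at 30 °C; MTase-Glo luminescence normalized to controls, IC50 from variable-slope fit.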

The target of test [2] is T2, EZH1/SUZ/EED (Homo sapiens, UniProt O75530+Q15022+Q92800).
T2 construct: purchased BPS 51006
In words: Inhibitory effect on EZH1 by the MTase-Glo method (Test Example 1). Conditions: EZH1/SUZ/EED 25 nM, H3 peptide 10 μM, SAM 3 μM, 30° C. 3 h, read-out: Test Example 1 WT EZH1 IC50. Type of test: biochemical. In outline: as §1

Test [3] has as its system H3K27Me3 methylation in Karpas-422 cells. In words: H3K27Me3 cell method, inhibition of H3K27Me3 methylation (Test Example 2). Type of test: cell-based, human. Conditions: Homo sapiens, KARPAS-422, 72 h; for pIC50: Karpas-422 cells, 3 days incubation, HTRF signal, read-out: Test Example 2 H3K27Me3 inhibition (Karpas-422) IC50; for IC50: read-out: Test Example 2 H3K27Me3 inhibition (Karpas-422) IC50(nM). In a few lines: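 Karpas-422 cells, 15,000/well in 80% RPMI 1640 + 20% FBS, treated with compound dilutions (final DMSO 0.2%) for 3 days at 37 °C, 5% CO2. Cellular H3K27Me3 read by HTRF; viability in parallel by CCK8 at OD405. IC50 from log(inhibitor)-response variable-slope fit of inhibition rate.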

The test system of test [4] is Karpas-422 cells. In words: Anti-proliferation by Cell Titer-Glo method (Test Example 3). Conditions: Homo sapiens; for pIC50: Karpas-422 cells, Cell-Titer Glo on the eleventh day, read-out: Test Example 3 Karpas-422 cell anti-proliferation IC50; for IC50: KARPAS-422, read-out: Test Example 3 Karpas-422 cell anti-proliferation IC50(nM). Type of test: cell-based. As to the method: Karpas-422 (Nanjing Kebai, CBP60629) cells were seeded in a 96-well plate (Corning, 3894) at 1,000 cells per well in growth medium (80% 1640 (Hyclone, SH30809.01)+20% FBS (Corning, 35-081-CV)), in a total of 100 μL, and then was added with 25 μL of 5-fold different concentrations of compounds diluted in growth medium. The cell growth group without compound addition was used as a positive control (maximum signal control), and the medium was used as a negative control (minimum signal control), while ensuring that the final contration of DMSO in each reaction well was 0.2%. Then the 96-well cell plate was placed in a cell culture incubator (37° C., 5% CO2) and incubated for 3 days. On the fourth day, the cell culture plate was taken out of the incubator, using a row gun to gently blow the cells up and down to mix, removing 62.5 μL of the cell suspension, adding 50 μL of growth medium and 12.5 μL of compounds of 5 times different concentrations, and then putting them in the cell incubator to incubate for 4 days. On the eighth day, the same method was used as the fourth day to treat the cells, then incubating in the cell culture incubator for 3 days. On the eleventh day, the Cell-Titer Glo (Promega, G7573) was used to detect cell viability, and a microplate reader was used to detect the signal value of luminescence.
The inhibition rate of different concentrations of compounds on cells was calculated as inhibition rate=[1−(compound signal value−negative control signal value)/(positive control signal value-negative control signal value)][…]. The IC50 of the compound on cell activity inhibition was calculated by GraphPad Prism 6 with log(inhibitor) vs. response-Variable slope model fitting. The fitting equation is: Y=Bottom+(Top−Bottom)/(1+10^((Log IC50−X)*Hill Slope)), wherein Y represents the inhibition rate, and X represents the known concentration of the compound after Log.
Background: ATP-based viability assays read luminescence as a measure of living cells.

Each structure is given as a SMILES string. pIC50: −log10 of the molar value. Like-named read-outs stand apart in the source and are kept apart here.

T2 sequence (Q92800 2-747 limits assumed): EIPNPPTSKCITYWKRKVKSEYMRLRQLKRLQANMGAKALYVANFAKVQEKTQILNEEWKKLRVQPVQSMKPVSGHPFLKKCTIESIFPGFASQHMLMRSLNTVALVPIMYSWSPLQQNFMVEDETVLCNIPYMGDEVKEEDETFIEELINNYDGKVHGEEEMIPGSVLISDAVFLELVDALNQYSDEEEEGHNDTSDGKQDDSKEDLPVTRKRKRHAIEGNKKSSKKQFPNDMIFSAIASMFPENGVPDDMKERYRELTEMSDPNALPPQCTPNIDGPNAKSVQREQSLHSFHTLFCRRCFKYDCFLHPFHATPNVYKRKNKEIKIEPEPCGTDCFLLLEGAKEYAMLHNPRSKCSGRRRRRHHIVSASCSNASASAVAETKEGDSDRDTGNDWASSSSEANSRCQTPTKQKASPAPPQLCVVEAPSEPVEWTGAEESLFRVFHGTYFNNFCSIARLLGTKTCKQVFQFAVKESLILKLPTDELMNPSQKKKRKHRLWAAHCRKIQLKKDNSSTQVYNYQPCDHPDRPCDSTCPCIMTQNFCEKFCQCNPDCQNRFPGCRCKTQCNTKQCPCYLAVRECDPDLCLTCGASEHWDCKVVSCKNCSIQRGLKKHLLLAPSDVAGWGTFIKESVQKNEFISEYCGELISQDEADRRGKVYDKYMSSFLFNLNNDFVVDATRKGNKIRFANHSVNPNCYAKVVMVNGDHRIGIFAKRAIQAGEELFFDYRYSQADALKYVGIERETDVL
T2 sequence (Q15022 2-739 partner limits assumed): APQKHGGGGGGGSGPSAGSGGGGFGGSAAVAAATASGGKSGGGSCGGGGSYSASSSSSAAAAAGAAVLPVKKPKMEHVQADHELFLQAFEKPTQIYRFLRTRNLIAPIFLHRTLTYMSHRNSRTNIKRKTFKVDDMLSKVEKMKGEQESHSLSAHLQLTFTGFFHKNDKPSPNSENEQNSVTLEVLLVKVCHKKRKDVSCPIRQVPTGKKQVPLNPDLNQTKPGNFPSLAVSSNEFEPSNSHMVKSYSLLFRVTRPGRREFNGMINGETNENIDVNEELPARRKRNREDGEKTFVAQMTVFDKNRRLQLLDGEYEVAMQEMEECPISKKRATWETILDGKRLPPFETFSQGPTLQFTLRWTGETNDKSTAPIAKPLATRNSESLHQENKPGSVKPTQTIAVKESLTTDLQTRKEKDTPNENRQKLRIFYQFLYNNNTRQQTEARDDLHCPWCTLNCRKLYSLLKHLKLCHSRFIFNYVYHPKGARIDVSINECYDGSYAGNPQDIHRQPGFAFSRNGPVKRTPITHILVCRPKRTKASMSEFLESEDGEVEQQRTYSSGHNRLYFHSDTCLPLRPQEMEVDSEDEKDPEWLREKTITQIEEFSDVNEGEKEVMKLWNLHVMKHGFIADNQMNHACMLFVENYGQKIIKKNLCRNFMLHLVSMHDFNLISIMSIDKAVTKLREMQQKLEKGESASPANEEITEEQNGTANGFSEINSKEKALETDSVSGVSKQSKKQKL
T2 sequence (O75530 2-441 partner limits assumed): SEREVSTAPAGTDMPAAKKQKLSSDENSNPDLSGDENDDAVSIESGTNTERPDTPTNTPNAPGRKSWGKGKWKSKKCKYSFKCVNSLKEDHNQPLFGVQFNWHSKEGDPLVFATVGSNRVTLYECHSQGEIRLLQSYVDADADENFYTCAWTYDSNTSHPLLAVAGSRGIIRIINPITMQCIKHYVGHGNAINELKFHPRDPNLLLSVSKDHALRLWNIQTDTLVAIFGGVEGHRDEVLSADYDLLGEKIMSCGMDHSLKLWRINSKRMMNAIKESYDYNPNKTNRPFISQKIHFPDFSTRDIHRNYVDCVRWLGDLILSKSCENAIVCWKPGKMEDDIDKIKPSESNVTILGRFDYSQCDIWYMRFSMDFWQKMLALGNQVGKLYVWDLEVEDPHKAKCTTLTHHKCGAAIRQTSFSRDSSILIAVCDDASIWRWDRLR
T1 sequence (Q15910 2-746 limits assumed): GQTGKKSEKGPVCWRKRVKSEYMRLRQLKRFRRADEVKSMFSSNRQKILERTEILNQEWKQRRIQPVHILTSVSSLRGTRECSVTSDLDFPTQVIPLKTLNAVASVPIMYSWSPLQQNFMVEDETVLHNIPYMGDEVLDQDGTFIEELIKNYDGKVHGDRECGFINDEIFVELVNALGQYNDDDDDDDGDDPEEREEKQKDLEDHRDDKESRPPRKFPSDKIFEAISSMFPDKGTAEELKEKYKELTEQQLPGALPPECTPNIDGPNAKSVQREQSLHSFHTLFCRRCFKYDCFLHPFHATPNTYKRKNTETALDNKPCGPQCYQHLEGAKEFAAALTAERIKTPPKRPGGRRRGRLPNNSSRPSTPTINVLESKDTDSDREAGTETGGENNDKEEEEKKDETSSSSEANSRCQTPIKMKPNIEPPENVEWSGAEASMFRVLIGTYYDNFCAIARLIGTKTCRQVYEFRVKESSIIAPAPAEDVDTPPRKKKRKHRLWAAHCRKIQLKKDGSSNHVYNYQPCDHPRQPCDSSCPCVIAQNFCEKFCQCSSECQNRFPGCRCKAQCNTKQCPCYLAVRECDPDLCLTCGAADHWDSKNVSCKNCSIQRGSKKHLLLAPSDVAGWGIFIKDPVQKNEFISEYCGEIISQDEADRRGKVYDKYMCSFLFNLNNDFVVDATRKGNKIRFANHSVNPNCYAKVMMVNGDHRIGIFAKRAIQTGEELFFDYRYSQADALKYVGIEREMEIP
T1 sequence (Q15022 2-739 partner limits assumed): as the sequence (Q15022 2-739 partner limits assumed) above
T1 sequence (O75530 2-441 partner limits assumed): as the sequence (O75530 2-441 partner limits assumed) above

For the molecule `[2H]C([2H])([2H])OC1CN([C@H]2CC[C@@H]([C@H]3COc4c(Cl)cc(C(=O)NCc5c(SC)cc(C)[nH]c5=O)c(C)c4O3)CC2)C1` [Compound 20], the pIC50 in test [1] is 8.51; in test [2] it was 8.48; in test [3] it was 8.49; in test [4] it was 8.80.
With `CSc1cc(C)[nH]c(=O)c1CNC(=O)c1cc(Cl)c2c(c1C)O[C@@H]([C@H]1CC[C@@H](N3CCC3)CC1)CO2` [Compound 32], the figures for the pIC50 in test [1] and in test [2] were 8.29 and 8.24, respectively. Moreover, the values for the IC50 in test [3] and in test [4] were 1.7 nM and 2 nM, respectively.
Turning to `Cc1cc(C)c(CNC(=O)c2cc(Cl)c3c(c2C)O[C@@H](C2CCC(N(C)C)CC2)CO3)c(=O)[nH]1` (stereo partly shown) [Compound 53], the pIC50 is 8.52 in test [1], 7.57 in test [2], 8.30 in test [3] and 7.85 in test [4].
As to `Cc1cc(C)c(CNC(=O)c2cc(Cl)c3c(c2C)O[C@H]([C@H]2CC[C@@H](N(C)C)CC2)CO3)c(=O)[nH]1` [Compound 54], the pIC50 was 6.60 in test [1], 6.40 in test [2], less than 6.00 in test [3] and less than 6.00 in test [4].
In the case of `Cc1cc(C)c(CNC(=O)c2cc(Cl)c3c(c2C)OC[C@@H]([C@H]2CC[C@@H](N(C)C)CC2)O3)c(=O)[nH]1` [Compound 55], the pIC50 in test [1] is 8.35; in test [2], 6.82; in test [3], 7.71; in test [4], 7.33.
Turning to `Cc1cc(C)c(CNC(=O)c2cc(Cl)c3c(c2C)OC[C@H]([C@H]2CC[C@@H](N(C)C)CC2)O3)c(=O)[nH]1` [Compound 56], the pIC50 was 6.47 in test [1], 6.09 in test [2], 6.03 in test [3] and less than 6.00 in test [4].
Regarding `Cc1cc(C)c(CNC(=O)c2cc(Cl)c3c(c2C)OC(C2CCC(N4CCCC4)CC2)CO3)c(=O)[nH]1` (stereo not shown) [Compound 63], the pIC50 in test [1] is 7.94; in test [2] it was 6.43; in test [3], 6.21; in test [4] it was 6.47.
For `COc1cc(C)[nH]c(=O)c1CNC(=O)c1cc(Cl)c2c(c1C)O[C@@H]([C@H]1CC[C@@H](N(C)C)CC1)CO2` [Compound 94] the same measures were 8.52, 8.09, 8.55 and 8.29.
The matching figures for `COc1cc(C)[nH]c(=O)c1CNC(=O)c1cc(Cl)c2c(c1C)O[C@@H]([C@H]1CC[C@@H](N3CC(OC)C3)CC1)CO2` [Compound 97]: 8.49, 7.82, 8.09 and 8.28.
`COCCOC1CN([C@H]2CC[C@@H]([C@H]3COc4c(Cl)cc(C(=O)NCc5c(OC)cc(C)[nH]c5=O)c(C)c4O3)CC2)C1` [Compound 101]: the pIC50 is 8.51 in test [1], 8.26 in test [2], 8.66 in test [3] and 8.42 in test [4].
`COc1cc(C)[nH]c(=O)c1CNC(=O)c1cc(Cl)c2c(c1C)O[C@@H]([C@H]1CC[C@@H](N3CC(OCCF)C3)CC1)CO2` [Compound 109]: the pIC50 was 8.70 in test [1], 8.42 in test [2], 8.74 in test [3] and 8.60 in test [4].
With `Cc1cc(C)c(CNC(=O)c2c(C)c3c(c(Cl)c2F)OC[C@H](C2CCC(N(C)C)CC2)O3)c(=O)[nH]1` (stereo partly shown) [Compound 130], the pIC50 was 7.90 in test [1] and 6.70 in test [2]. For the same molecule, the IC50 in test [3] amounted to 209 nM; in test [4] it was 115 nM.
For `Cc1cc(C)c(CNC(=O)c2cc(Cl)c3c(c2Cl)O[C@@H]([C@H]2CC[C@@H](N(C)C)CC2)CO3)c(=O)[nH]1` [Compound 143] the same measures were 8.26, 7.40, 22 nM and 10.7 nM.
`COC1CN([C@H]2CC[C@@H]([C@H]3COc4c(Cl)cc(C(=O)NCc5c(SC)cc(C)[nH]c5=O)c(Cl)c4O3)CC2)C1` [Compound 149]: the pIC50 in test [1] was 8.64; in test [2], 8.48; in test [3] it was 8.44; in test [4], 8.57.
The matching figures for `COC1CN([C@H]2CC[C@@H]([C@H]3COc4c(C#N)cc(C(=O)NCc5c(SC)cc(C)[nH]c5=O)c(C)c4O3)CC2)C1` [Compound 153]: 8.49, 8.16, 8.21 and 8.43.
For `CSc1cc(C)[nH]c(=O)c1CNC(=O)c1cc(C#N)c2c(c1C)O[C@@H]([C@H]1CC[C@@H](N3CC(OC4CC4)C3)CC1)CO2` [Compound 159] the same measures were 8.96, 8.15, 8.85 and 8.64.
For `CSc1cc(C)[nH]c(=O)c1CNC(=O)c1cc(C#N)c2c(c1C)O[C@@H]([C@H]1CC[C@@H](N3CC(OCCF)C3)CC1)CO2` [Compound 161] the same measures were 8.43, 8.26, 8.66 and 8.62.
As for `COC1CN([C@H]2CC[C@@H]([C@H]3COc4c(F)cc(C(=O)NCc5c(SC)cc(C)[nH]c5=O)c(C)c4O3)CC2)C1` [Compound 169], the pIC50 was 8.22 in test [1], 8.24 in test [2], 8.38 in test [3] and 8.74 in test [4].
For `COC1CN([C@H]2CC[C@@H]([C@H]3COc4c(Cl)cc(C(=O)NCc5c(Cl)cc(C)[nH]c5=O)c(C)c4O3)CC2)C1` [Compound 175] the same measures were 8.47, 7.78, 7.79 and 7.87.
